According to patent publication US12517131B2, “Methods for labeling eukaryotic cells from a multicellular organism as well as for treating and/or diagnosing a cancer using modified monosaccharide compounds” (DIAMIDEX, priority 2019, dated 2026):

How the values were obtained:
Assay in all cases: Comparison of labeling of Ara-N3 and KDO-N3
Format in all cases: cell-based, human
Conditions in all cases: same conditions as in example 2
[1] = tested on: Raw
[2] = tested on: Macrophages
[3] = tested on: HeLa

Measured: labelling of cells (fluorescence intensity)

[N-]=[N+]=NC[C@@H](O)[C@@H](O)[C@H](O)[C@H](O)CC(=O)C(=O)O [KDO-N3, 8-azido-3,8-dideoxy-D-manno-octulosonic acid]
not labelled: all assays above
